Earlier results, collected in patent publication US20180228799A1, “Treatment for Neurological and Mental Disorders” (PSYCHOGENICS, INC., priority 2008, published 2018).

Target: T1, 5-HT2C receptors (Homo sapiens, UniProt P28335)
T1 sequence (P28335 33-458): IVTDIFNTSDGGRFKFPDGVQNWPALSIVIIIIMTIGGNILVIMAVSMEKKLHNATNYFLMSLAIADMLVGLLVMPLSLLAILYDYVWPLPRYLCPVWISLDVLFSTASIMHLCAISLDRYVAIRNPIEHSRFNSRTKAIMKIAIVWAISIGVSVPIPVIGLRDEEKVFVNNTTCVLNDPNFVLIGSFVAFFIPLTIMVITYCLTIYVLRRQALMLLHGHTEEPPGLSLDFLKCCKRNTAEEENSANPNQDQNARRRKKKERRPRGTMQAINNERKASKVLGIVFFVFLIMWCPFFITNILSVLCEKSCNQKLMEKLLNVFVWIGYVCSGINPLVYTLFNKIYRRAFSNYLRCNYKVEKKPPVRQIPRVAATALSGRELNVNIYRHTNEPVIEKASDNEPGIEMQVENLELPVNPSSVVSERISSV
Conditions: relative to 5-HT1A, 5-HT1B; Schipper et al.; cited from earlier work

## c1cc2c(c(N3CCNCC3)c1)OCCO2 [Eltoprazine, 1-(2,3-dihydro-1,4-benzodioxanyl-5-yl) piperazine]
  Binding affinity for 5-HT2C receptors: somewhat lower affinity
